Molecular target: T1, PedE (Pseudomonas putida, UniProt Q88JH5)
T1 construct: C-terminal 6xHis tag, expressed in E. coli BL21(DE3), purified by IMAC, PQQ/Ca2+-dependent periplasmic enzyme
T1 sequence (Q88JH5 34-631): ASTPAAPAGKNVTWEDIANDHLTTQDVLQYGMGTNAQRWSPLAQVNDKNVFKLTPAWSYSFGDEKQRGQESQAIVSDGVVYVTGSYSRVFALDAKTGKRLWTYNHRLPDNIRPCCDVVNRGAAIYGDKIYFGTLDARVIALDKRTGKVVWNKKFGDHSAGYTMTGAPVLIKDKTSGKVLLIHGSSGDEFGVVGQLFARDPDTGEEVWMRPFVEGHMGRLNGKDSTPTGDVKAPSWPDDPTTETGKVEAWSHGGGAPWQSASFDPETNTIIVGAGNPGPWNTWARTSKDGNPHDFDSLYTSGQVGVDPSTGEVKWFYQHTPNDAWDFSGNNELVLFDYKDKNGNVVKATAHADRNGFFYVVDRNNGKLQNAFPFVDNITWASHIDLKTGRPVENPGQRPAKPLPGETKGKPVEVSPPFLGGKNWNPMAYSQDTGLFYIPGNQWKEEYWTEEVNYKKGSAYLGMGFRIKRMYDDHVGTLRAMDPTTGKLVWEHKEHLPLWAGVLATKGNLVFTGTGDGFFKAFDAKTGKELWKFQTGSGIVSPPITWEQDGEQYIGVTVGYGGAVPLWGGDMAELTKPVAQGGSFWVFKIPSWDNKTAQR
Assay: residual activity after […] h at […]°C, apo vs PQQ/CaCl2-reconstituted enzyme
Type: biochemical
Settings: reconstitution with 10 μM PQQ and 10 mM CaCl2, Tris pH 7.5; ethanol 10 mM as substrate

O=C(O)c1cc(C(=O)O)c2c(n1)C(=O)C(=O)c1cc(C(=O)O)[nH]c1-2 [PQQ]
residual activity after 1 h at 45°C, apo vs PQQ/CaCl2-reconstituted enzyme: purified apo‐form of PedE is much less thermostable compared with the PQQ reconstituted form

From PMC5812247, “Engineering thermal stability and solvent tolerance of the soluble quinoprotein PedE from Pseudomonas putida KT2440 with a heterologous whole‐cell screening approach” (Microbial Biotechnology, 2017)
